Results as given in patent US11168364B2, “Method and system for sequencing nucleic acids” (priority 2016, dated 2021).
Read-outs that look alike come from different tables or passages of the source.

Experiments:
Klenow = Klenow (Escherichia coli, UniProt P00582); experiment: Label-free optical detection of Klenow binding with magnesium in the examination step (Example 1); conditions: Polymerase Buffer with 10 mM MgCl2; 150 nM Klenow; 100 μM dNTP; template base T
[1] = biological target: Klenow (3′→5′ exo(−)) fragment of E. coli DNA polymerase (Escherichia coli, UniProt P00582, D355A/E357A)
Chain of Klenow (3′→5′ exo(−)) fragment of E. coli DNA polymerase (P00582 324-928 D355A/E357A limits assumed): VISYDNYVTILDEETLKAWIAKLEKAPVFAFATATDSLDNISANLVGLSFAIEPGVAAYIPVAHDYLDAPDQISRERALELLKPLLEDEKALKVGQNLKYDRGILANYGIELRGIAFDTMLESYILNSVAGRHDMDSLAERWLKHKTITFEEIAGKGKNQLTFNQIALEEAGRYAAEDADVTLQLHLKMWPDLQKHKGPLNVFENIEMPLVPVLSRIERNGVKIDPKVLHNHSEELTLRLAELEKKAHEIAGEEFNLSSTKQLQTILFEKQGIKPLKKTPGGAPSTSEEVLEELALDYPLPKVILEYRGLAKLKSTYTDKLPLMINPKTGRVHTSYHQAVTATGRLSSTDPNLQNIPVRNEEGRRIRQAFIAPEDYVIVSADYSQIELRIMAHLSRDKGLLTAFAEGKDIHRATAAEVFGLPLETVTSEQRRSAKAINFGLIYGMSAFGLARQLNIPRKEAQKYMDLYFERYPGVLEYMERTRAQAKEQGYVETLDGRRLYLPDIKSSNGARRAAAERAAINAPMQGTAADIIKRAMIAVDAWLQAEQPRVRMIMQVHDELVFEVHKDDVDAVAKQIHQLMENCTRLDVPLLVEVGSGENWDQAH

[2] = biological target: T1, Bsu DNA polymerase large fragment / primed template nucleic acid (Bacillus subtilis, UniProt O34996); experiment: Biolayer interferometry of polymerase binding to immobilized primed template with cognate or non-cognate nucleotide, salt titration (Example 19); conditions: for Ternary Complex Signal (Δλ, nm): dCTP (cognate); for Binary Complex Signal (Δλ, nm): dGTP (non-cognate)
T1 construct: 350 U/ml Bsu DNA polymerase large fragment
T1 sequence (O34996 297-880 limits assumed): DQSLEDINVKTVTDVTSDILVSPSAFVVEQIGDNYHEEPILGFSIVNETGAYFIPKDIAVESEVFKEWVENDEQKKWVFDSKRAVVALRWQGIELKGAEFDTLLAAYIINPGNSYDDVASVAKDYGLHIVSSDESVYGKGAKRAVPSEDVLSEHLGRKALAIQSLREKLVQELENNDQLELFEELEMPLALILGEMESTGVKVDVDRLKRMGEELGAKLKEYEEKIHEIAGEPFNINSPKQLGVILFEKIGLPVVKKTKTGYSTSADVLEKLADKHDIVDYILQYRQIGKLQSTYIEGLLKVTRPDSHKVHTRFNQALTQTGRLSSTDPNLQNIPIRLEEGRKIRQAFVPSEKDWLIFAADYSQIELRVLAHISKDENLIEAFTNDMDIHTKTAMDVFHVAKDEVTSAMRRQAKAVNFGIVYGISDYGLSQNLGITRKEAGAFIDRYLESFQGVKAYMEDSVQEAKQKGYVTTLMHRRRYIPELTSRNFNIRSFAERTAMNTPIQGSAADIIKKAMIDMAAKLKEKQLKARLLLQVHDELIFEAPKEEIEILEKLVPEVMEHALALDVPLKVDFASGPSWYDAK
Description: A FORTEBIO® (Menlo Park, Calif.) OCTET® instrument employing biolayer interferometry to measure binding reactions at the surface of a fiber optic tip was used in a multiwell plate format to investigate differential stability of binary and ternary complexes. Template strands biotinylated at their 5′-ends were used to immobilize the primed template nucleic acid onto fiber optic tips functionalized with streptavidin (SA) according to standard procedures. […] Tips were first equilibrated in a Tris-buffered solution containing 30 mM Tris-HCl (pH 8.0), and 0.1 mM EDTA before commencing the cycling protocol. Independent binding reactions for the two test nucleotides (i.e., cognate and non-cognate nucleotides) were carried out in the presence of concentrations of NaCl, KCl, or potassium glutamate that varied from 50 mM to 500 mM. […] In all instances, the reaction mixture used during the examination step contained Tris-HCl (pH 8.0), 0.01% Tween-20, 100 μg/ml BSA, 2 mM NiSO4, 350 U/ml Bsu DNA polymerase large fragment; and one of the nucleotides at a concentration of 100 μM (dCTP was used as a cognate nucleotide, and dGTP was used as a non-cognate nucleotide). Following each examination step, tips were exposed to a buffer containing 30 mM Tris-HCl (pH 8.0), 500 mM KCl, 2 mM EDTA and 0.05% Tween-20 for 20 seconds to strip enzyme complexes from the primed template nucleic acid. The stripping step was followed by a 15 second exposure to examination buffer without enzyme, dNTP or divalent cations to regenerate tips for the next cycle of examination. When using a single contacting step to effect binding of polymerase and nucleotide to the primed template nucleic acid, the binding step was 45 seconds long, with binding interactions being monitored continuously. This was accomplished by contacting the primed template nucleic acid with a single solution that included the polymerase and test nucleotide. Results from interferometry monitoring were analyzed to identify formation of ternary complexes (i.e., identifying cognate nucleotide) or binary complexes (i.e., identifying non-cognate nucleotide).

[3] = divalent cation 2.0 mM (CoCl2 1.0 mM) in Binding Buffer, 100 μM dCTP
[4] = divalent cation 2.0 mM (CoCl2 1.0 mM), 100 μM dCTP

Chain of Klenow (P00582 324-928): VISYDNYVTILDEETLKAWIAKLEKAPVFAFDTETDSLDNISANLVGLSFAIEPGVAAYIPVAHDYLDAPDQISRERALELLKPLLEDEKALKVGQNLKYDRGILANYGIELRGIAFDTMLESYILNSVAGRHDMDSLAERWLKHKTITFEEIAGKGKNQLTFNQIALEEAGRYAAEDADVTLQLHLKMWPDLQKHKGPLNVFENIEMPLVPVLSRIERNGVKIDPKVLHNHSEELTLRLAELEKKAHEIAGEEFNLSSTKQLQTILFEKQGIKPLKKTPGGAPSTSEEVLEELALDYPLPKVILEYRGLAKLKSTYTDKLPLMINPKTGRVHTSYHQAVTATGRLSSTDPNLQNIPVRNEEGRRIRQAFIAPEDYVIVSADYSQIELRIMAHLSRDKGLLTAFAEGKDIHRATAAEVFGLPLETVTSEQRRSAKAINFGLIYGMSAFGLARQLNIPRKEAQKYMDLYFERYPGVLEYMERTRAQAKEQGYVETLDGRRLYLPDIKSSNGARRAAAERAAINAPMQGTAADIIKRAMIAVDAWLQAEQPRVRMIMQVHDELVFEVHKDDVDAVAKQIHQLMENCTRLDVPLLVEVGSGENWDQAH

For Nc1ccn([C@H]2C[C@H](O)[C@@H](COP(=O)(O)OP(=O)(O)OP(=O)(O)O)O2)c(=O)n1 [dCTP, 2′-deoxycytidine-5′-triphosphate], the “pre-steady state rate constant” value (Klenow) was 0.0084.
[Cl-].[Cl-].[Zn+2] [Zn2+, zinc chloride] was tested, and the “binding of Klenow exo(−) and dCTP to biosensor coated with ssDNA primer-template” value (“binding of Klenow exo(−) and dCTP” below) [1, 3] was “transient peak” and the “nucleotide incorporation by Klenow exo(−) in the absence of Mg2+” value (shortened to “nucleotide incorporation”) [1, 4] was “complete nucleotide incorporation”.
For [Cl][Cu][Cl] [Cu2+, copper(II) chloride], the “binding of Klenow exo(−) and dCTP” value [1] was “transient peak”.
With Nc1ncnc2c1ncn2[C@H]1C[C@H](O)[C@@H](COP(=O)(O)OP(=O)(O)OP(=O)(O)O)O1 [dATP, 2′-deoxyadenosine-5′-triphosphate] the “pre-steady state rate constant” value (Klenow) was 0.0106.
For [Ba+2].[Cl-].[Cl-] [BaCl2, barium chloride], the “binding of Klenow exo(−) and dCTP” value [1, 3] was “bound strongly”.
For manganese chloride [Mn2+], the “binding of Klenow exo(−) and dCTP” value [1, 3] was “flat peak” and the “nucleotide incorporation” value [1, 4] was “complete nucleotide incorporation”.
N.N.O=S(=O)(O)O [ammonium sulfate] was tested, and the “binding of Klenow exo(−) and dCTP” value [1, 3] was “bound strongly”.
In the case of [Cl][Co][Cl] [Co2+, cobalt chloride], the “binding of Klenow exo(−) and dCTP” value [1, 3] is reported as “transient peak” and the “nucleotide incorporation” value [1, 4] is reported as “complete nucleotide incorporation”.
In the case of [Cl-].[Na+] [NaCl], the “Fold Enhancement (Ternary/Binary)” value ([2]; NaCl 50 mM) is reported as 1.07, the “Ternary Complex Signal (Δλ, nm)” value ([2]; NaCl 50 mM) is reported as 3.33 nm and the “Binary Complex Signal (Δλ, nm)” value ([2]; NaCl 50 mM) is reported as 3.11 nm. The “Fold Enhancement (Ternary/Binary)” value ([2]; NaCl 75 mM) was 1.10, the “Ternary Complex Signal (Δλ, nm)” value ([2]; NaCl 75 mM) was 2.77 nm and the “Binary Complex Signal (Δλ, nm)” value ([2]; NaCl 75 mM) was 2.51 nm. For the same molecule, the “Fold Enhancement (Ternary/Binary)” value ([2]; NaCl 100 mM) was 1.07, the “Ternary Complex Signal (Δλ, nm)” value ([2]; NaCl 100 mM) was 2.34 nm and the “Binary Complex Signal (Δλ, nm)” value ([2]; NaCl 100 mM) was 2.17 nm. For the same molecule, the “Fold Enhancement (Ternary/Binary)” value ([2]; NaCl 125 mM) was 1.04, the “Ternary Complex Signal (Δλ, nm)” value ([2]; NaCl 125 mM) was 1.99 nm and the “Binary Complex Signal (Δλ, nm)” value ([2]; NaCl 125 mM) was 1.91 nm. The “Fold Enhancement (Ternary/Binary)” value ([2]; NaCl 150 mM) was 1.04, the “Ternary Complex Signal (Δλ, nm)” value ([2]; NaCl 150 mM) was 1.73 nm and the “Binary Complex Signal (Δλ, nm)” value ([2]; NaCl 150 mM) was 1.67 nm. For the same molecule, the “Fold Enhancement (Ternary/Binary)” value ([2]; NaCl 175 mM) was 1.11, the “Ternary Complex Signal (Δλ, nm)” value ([2]; NaCl 175 mM) was 1.51 nm and the “Binary Complex Signal (Δλ, nm)” value ([2]; NaCl 175 mM) was 1.36 nm. The “Fold Enhancement (Ternary/Binary)” value ([2]; NaCl 200 mM) was 1.19, the “Ternary Complex Signal (Δλ, nm)” value ([2]; NaCl 200 mM) was 1.36 nm and the “Binary Complex Signal (Δλ, nm)” value ([2]; NaCl 200 mM) was 1.15 nm. The “Fold Enhancement (Ternary/Binary)” value ([2]; NaCl 225 mM) was 1.27, the “Ternary Complex Signal (Δλ, nm)” value ([2]; NaCl 225 mM) was 1.28 nm and the “Binary Complex Signal (Δλ, nm)” value ([2]; NaCl 225 mM) was 1.01 nm. For the same molecule, the “Fold Enhancement (Ternary/Binary)” value ([2]; NaCl 250 mM) was 1.47, the “Ternary Complex Signal (Δλ, nm)” value ([2]; NaCl 250 mM) was 1.18 nm and the “Binary Complex Signal (Δλ, nm)” value ([2]; NaCl 250 mM) was 0.80 nm. For the same molecule, the “Fold Enhancement (Ternary/Binary)” value ([2]; NaCl 275 mM) was 1.65, the “Ternary Complex Signal (Δλ, nm)” value ([2]; NaCl 275 mM) was 1.11 nm and the “Binary Complex Signal (Δλ, nm)” value ([2]; NaCl 275 mM) was 0.67 nm. The “Fold Enhancement (Ternary/Binary)” value ([2]; NaCl 300 mM) was 1.86, the “Ternary Complex Signal (Δλ, nm)” value ([2]; NaCl 300 mM) was 0.99 nm and the “Binary Complex Signal (Δλ, nm)” value ([2]; NaCl 300 mM) was 0.53 nm. For the same molecule, the “Fold Enhancement (Ternary/Binary)” value ([2]; NaCl 325 mM) was 2.76, the “Ternary Complex Signal (Δλ, nm)” value ([2]; NaCl 325 mM) was 0.93 nm and the “Binary Complex Signal (Δλ, nm)” value ([2]; NaCl 325 mM) was 0.34 nm. The “Fold Enhancement (Ternary/Binary)” value ([2]; NaCl 350 mM) was 2.94, the “Ternary Complex Signal (Δλ, nm)” value ([2]; NaCl 350 mM) was 0.74 nm and the “Binary Complex Signal (Δλ, nm)” value ([2]; NaCl 350 mM) was 0.25 nm. The “Fold Enhancement (Ternary/Binary)” value ([2]; NaCl 375 mM) was 3.62, the “Ternary Complex Signal (Δλ, nm)” value ([2]; NaCl 375 mM) was 0.61 nm and the “Binary Complex Signal (Δλ, nm)” value ([2]; NaCl 375 mM) was 0.17 nm. The “Ternary Complex Signal (Δλ, nm)” value ([2]; NaCl 400 mM) was 0.48 nm, the “Binary Complex Signal (Δλ, nm)” value ([2]; NaCl 400 mM) was 0.08 nm and the “Fold Enhancement (Ternary/Binary)” value ([2]; NaCl 425 mM) was 5.16. For the same molecule, the “Ternary Complex Signal (Δλ, nm)” value ([2]; NaCl 425 mM) was 0.38 nm, the “Binary Complex Signal (Δλ, nm)” value ([2]; NaCl 425 mM) was 0.07 nm and the “Fold Enhancement (Ternary/Binary)” value ([2]; NaCl 450 mM) was 6.65. The “Ternary Complex Signal (Δλ, nm)” value ([2]; NaCl 450 mM) was 0.26 nm, the “Binary Complex Signal (Δλ, nm)” value ([2]; NaCl 450 mM) was 0.04 nm and the “Fold Enhancement (Ternary/Binary)” value ([2]; NaCl 475 mM) was 10.28. For the same molecule, the “Ternary Complex Signal (Δλ, nm)” value ([2]; NaCl 475 mM) was 0.19 nm, the “Binary Complex Signal (Δλ, nm)” value ([2]; NaCl 475 mM) was 0.02 nm and the “Ternary Complex Signal (Δλ, nm)” value ([2]; NaCl 500 mM) was 0.21 nm. The “Binary Complex Signal (Δλ, nm)” value ([2]; NaCl 500 mM) was 0.00 nm.
With [Ca+2].[Cl-].[Cl-] [Ca2+, calcium chloride] the “binding of Klenow exo(−) and dCTP” value [1] was “transient peak” and the “nucleotide incorporation” value [1] was “complete nucleotide incorporation”.
